The target in this assay is T1, AlbS (albireticulene synthase) (Streptomyces albireticuli, UniProt A0A2A2D8W5).
T1 sequence (A0A2A2D8W5 1-369): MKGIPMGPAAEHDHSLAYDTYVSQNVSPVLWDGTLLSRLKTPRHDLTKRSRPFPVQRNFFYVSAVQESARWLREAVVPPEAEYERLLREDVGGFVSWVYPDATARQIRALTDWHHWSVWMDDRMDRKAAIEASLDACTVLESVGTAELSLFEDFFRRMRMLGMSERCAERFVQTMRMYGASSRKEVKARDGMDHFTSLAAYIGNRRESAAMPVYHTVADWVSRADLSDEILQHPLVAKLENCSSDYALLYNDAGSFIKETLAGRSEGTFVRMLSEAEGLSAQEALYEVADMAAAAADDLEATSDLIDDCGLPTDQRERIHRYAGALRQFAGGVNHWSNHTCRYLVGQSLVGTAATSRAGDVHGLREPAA
Kind of assay: GC-MS product analysis. Type of assay: biochemical. Conditions: products: five sesquiterpenes (3-7).

In the case of `CC(C)=CCC/C(C)=C/CC/C(C)=C/COP(=O)(O)OP(=O)(O)O` [FPP], the GC-MS product analysis result was “GC-MS analysis revealed that FPP was converted into five sesquiterpenes”.

These data come from PMC10022577 (Chem, 2023).
